Experimental data reported in ChEMBL document CHEMBL1201862, “PubChem BioAssay data set” (2004).
Activity calls are given as the source filed them. Cut-off read from the data, not from the text of the source, for most assays here: actives have a measured EC50 and inactives only a lower limit.

Key:
[1] = Luminescence Cell-Based Dose Retest to Confirm Inhibitors of Cancer Stem Cells. [Related pubchem assays (depositor defined):AID2717, AID2721]; assay type: functional; details: Homo sapiens
[2] = Trypanosoma cruzi growth suppression in host cells – NIH3T3 host cells, beta-gal luminescence, confirmation (AID 2044); assay type: functional, cell-based;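 note: intracellular parasites grown in NIH/3T3 mouse fibroblasts as host cells; luminescent beta-galactosidase reporter signal from transgenic T. cruzi replicating inside host cells; inhibitors lower the luminescence signal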
[3] = NIH3T3 cell viability loss – ATP luminescence, mouse fibroblasts, counter-screen, dose response (AID 2010); assay type: functional, cell-based;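 note: cells exposed to compound for about 90 hours before reading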
[4] = biological target: T1, Heat shock factor protein 1 (Mus musculus, UniProt P38532); experiment: decrease of HSF1-responsive luciferase luminescence – cell-based, NIH3T3, dose retest, confirmation (AID 2382); assay type: functional;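 note: NIH3T3 fibroblasts with HSF1-driven luciferase reporter stressed by proteasome inhibitor MG132; luminescence from HSF1-driven luciferase expression after 8 hours of MG132 stress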
T1 sequence (P38532 whole entry): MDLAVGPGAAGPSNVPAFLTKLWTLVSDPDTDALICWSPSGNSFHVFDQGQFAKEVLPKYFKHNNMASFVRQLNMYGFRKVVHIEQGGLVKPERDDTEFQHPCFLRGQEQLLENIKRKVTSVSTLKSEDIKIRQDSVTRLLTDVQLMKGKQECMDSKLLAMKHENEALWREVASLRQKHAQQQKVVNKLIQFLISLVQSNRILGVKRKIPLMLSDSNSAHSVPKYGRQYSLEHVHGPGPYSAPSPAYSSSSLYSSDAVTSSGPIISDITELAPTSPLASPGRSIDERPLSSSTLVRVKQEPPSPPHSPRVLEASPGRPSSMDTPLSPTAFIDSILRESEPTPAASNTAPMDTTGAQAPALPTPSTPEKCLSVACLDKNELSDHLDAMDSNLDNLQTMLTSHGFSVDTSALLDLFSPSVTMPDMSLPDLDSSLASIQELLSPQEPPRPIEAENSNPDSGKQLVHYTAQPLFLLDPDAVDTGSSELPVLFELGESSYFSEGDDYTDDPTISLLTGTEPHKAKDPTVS

[5] = biological target: T2, Corticotropin-releasing factor receptor 2/Corticotropin-releasing factor-binding protein (Homo sapiens, UniProt P24387+Q13324); experiment: activators of CRF receptor 2 with binding protein – uHTS hits, confirmation (AID 602473); assay type: functional; details: read-out: EC50_Mean
T2 sequence (Q13324 whole entry): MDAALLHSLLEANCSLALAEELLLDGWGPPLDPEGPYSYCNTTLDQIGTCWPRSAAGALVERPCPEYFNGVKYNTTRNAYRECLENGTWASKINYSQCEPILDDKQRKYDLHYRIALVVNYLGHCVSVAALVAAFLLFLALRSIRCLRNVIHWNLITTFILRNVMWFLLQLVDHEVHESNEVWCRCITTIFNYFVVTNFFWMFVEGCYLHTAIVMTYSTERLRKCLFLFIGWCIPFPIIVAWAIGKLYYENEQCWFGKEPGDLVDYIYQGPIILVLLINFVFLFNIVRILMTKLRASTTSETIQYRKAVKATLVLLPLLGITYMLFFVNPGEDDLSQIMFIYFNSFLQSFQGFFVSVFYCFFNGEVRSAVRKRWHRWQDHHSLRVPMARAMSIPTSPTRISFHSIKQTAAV
T2 sequence (P24387 whole entry): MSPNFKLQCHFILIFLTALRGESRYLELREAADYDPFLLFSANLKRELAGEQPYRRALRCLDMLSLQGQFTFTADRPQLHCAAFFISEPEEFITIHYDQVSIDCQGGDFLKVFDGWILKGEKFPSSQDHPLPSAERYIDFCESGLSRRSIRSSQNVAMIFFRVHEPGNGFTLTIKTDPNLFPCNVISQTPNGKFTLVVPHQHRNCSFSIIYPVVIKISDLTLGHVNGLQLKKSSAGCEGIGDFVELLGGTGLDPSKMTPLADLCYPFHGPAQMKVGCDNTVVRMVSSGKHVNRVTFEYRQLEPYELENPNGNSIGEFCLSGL

[6] = viability of PTEN-deleted HCT116 cells – cell-based, HCT116 PTEN knockout, dose response (AID 1047); assay type: functional;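 note: HCT116 colon tumor cells with PTEN knocked out; cells exposed to compound for 60 hours before readout; potency for loss of cell viability measured by luminescence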
[7] = viability of HCT116 lacking mutant beta-catenin – cell-based, human colon tumor, dose response (AID 1045); assay type: functional;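 note: HCT116 colon tumor cells with beta catenin knocked out; cells exposed to compound for 60 hours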
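Throughout, for AC50: cells exposed to compound for roughly 70 hours or longer before luminescence read.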

EC50 [4]	SMILES	EC50 [2]	EC50 [3]	further results
	O=c1cc(N2CCCCC2)c(-c2ccccc2)nn1Cc1cccc(Cl)c1			AC50 [1]: 3.6 µM (active)
	Cc1cccc(NC(=O)CSCC(=O)Nc2cc(Cl)ccc2N2CCN(C)CC2)c1	2410 nM (active)	> 60 µM (not active)	
	Clc1cccc(Nc2nc(-c3cccnc3)cs2)c1	1230 nM (active)	> 60 µM (not active)	
> 195 µM (not active)	C=CCOCCN(CCOCC=C)C1=NS(=O)(=O)c2ccccc21			
	CN(C)c1nc(NCc2ccccc2)nc(SCC(=O)Nc2ccc(Cl)c(Cl)c2)n1	2150 nM (active)	> 60 µM (inconclusive)	
> 195 µM (not active)	CCc1cc2c(NCCC(=O)O)nc(C)nc2s1			
169 µM (active)	CN(C)c1ccc(CNc2ccc3c(c2)ncn3C(C)(C)C)cc1			
> 195 µM (not active)	CC1CCN(CC(=O)NC2CCCCC2)CC1			
> 195 µM (not active)	COc1ccc2nc(Cl)c(C#N)cc2c1			
	O=C(CCc1ccccc1)Nc1ncc([N+](=O)[O-])s1	951 nM (active)	> 60 µM (not active)	
	O=C(CCCNC1=NS(=O)(=O)c2ccccc21)OCC(=O)c1ccc(F)c(F)c1			EC50 [5]: 7.63 µM (active)
> 195 µM (not active)	COc1ccc(Cl)cc1NC(=O)CN(C)C(=O)Cn1cnc2c1c(=O)n(C)c(=O)n2C			
	O=[N+]([O-])c1cn(-c2nc(-c3ccco3)cc(C(F)(F)F)n2)cn1	723 nM (active)	> 30 µM (not active)	
	Cc1cccc(NC(=O)c2cc(-c3cc(C)cc(C)c3O)[nH]n2)c1			AC50 [1]: 2.86 µM (active)
	COc1ccc2c(c1)C=C(CN1CCN(Cc3ccccc3C)C(CCO)C1)CO2 (stereo not given)	391 nM (active)	> 30 µM (not active)	
	COc1cc(OC)c(OC)cc1CN1CCCC(C(=O)c2ccccc2SC)C1 (stereo not given)	138 nM (active)	> 60 µM (not active)	
	COC(=O)NC(=S)Nc1ccc(Oc2ccc(Cl)cc2Cl)c(Cl)c1	1830 nM (active)	> 60 µM (not active)	
> 195 µM (not active)	CCOC(=O)Cn1c(COc2ccccc2OC)[n+](C)c2ccccc21			
	CCOC(=O)c1c(NC(=O)Cc2ccccc2)sc2c1CCN(C)C2	109 nM (active)	> 60 µM (not active)	
	COc1cc(C2SCC(=O)N2CCCN(C)C)cc(OC)c1OC (stereo not given)	264 nM (active)	> 60 µM (not active)	
	COc1ccc(CN2CCN(Cc3ccc(C)cc3)CC2)c(OC)c1	220 nM (active)	> 60 µM (not active)	
> 195 µM (not active)	COc1ccccc1-n1c(S)nnc1CNC(=O)c1cccc([N+](=O)[O-])c1C			
	COc1ccc(N2CCN(c3ncnc4scc(-c5ccc(C)cc5)c34)CC2)cc1	2690 nM (active)	> 60 µM (not active)	
	COc1ccc(CN(C(=O)Cc2cccs2)C(C(=O)NC2CCCC2)c2ccncc2)cc1 (stereo not given)	2220 nM (active)	50.8 µM (active)	
> 195 µM (not active)	O=C(CCCCn1c(=O)[nH]c2ccsc2c1=O)NCc1cccnc1			
	Cc1ccc(C(C(=O)NCc2ccco2)N(C(=O)CNC(=O)c2cccs2)c2c(C)cccc2C)cc1 (stereo not given)			EC50 [6]: 6.55 µM (active); EC50 [7]: 8.32 µM (active)
	O=C(Nc1ccc(Cl)c(Cl)c1)Nc1cc(S(=O)(=O)N2CCOCC2)ccc1N1CCCC1			EC50 [6]: 22.5 µM (active); EC50 [7]: 20.3 µM (active)
	CN(C(=O)CSc1nc(C2CC2)nc2ccccc12)c1nc(-c2ccccc2)cs1			EC50 [6]: 14.7 µM (active); EC50 [7]: 12.7 µM (active)

SMILES	EC50 [4]	EC50 [2]	EC50 [3]	further results
COc1ccc(-c2nc3ccccc3c(=O)n2-c2cccnc2)cc1	> 195 µM (not active)			
